Consider 14 compounds from patent US20240158348A1, “HERBICIDAL CYCLIC AMIDES N-SUBSTITUTED WITH A HALOALKYLSULFONYLANILIDE GROUP” (FMC Corporation, priority 2021, published 2024).

What all share (type): in vivo
The subject of assay [1] is blackgrass (Alopecurus myosuroides). As to the kind of experiment: Test C postemergence, blackgrass. Conditions: 125 g ai/ha Postemergence; 0 is no effect, 100 is complete control.
Assay [2] has as its system oat, wild (wild oat, Avena fatua). As to the kind of experiment: Test C postemergence, wild oat. Conditions: for Oat, Wild plant response rating: visual injury, 0 to 100 scale (0 no effect, 100 complete control); for Plant response rating (0 to 100 scale), Oat, Wild: 0 is no effect, 100 is complete control.
For a further assay, the system named is kochia (Bassia scoparia). As to the kind of experiment: Test C preemergence, kochia. The note with it: 0 is no effect, 100 is complete control. In a few lines:
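Visual injury rating, 0 (no effect) to 100 (complete control), versus untreated controls after 10 or 12 days in the greenhouse. Compounds were formulated in non-phytotoxic solvent plus surfactant and applied either as a directed soil spray at sowing or onto emerged one- to two-leaf plants.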

As for `Cc1c(N2CCCC(OC3CC3)C2=O)cc(N(COC(=O)C(C)(C)C)S(=O)(=O)C(F)(F)F)c(C)c1F` (stereo not shown) [Compound 37], the “Plant response rating (0 to 100 scale), Blackgrass” value (shortened to “Plant response rating … Blackgrass”) in assay [1] amounted to 60. In assay [2] (31 g ai/ha Postemergence), the “Oat, Wild plant response rating” value was determined as 20. In assay [2] (125 g ai/ha Postemergence), the “Plant response rating (0 to 100 scale), Oat, Wild” value is on record as 70. Besides, the “Plant response rating (0 to 100 scale), Kochia” value (“Plant response rating … Kochia” below) in the assay with kochia (Bassia scoparia) (31 g ai/ha Preemergence) amounted to 0; in the assay with kochia (Bassia scoparia) (125 g ai/ha Preemergence), 90.
`Cc1c(N2CCC(OC3CCC3)C2=O)cc(N(COC(=O)C(C)(C)C)S(=O)(=O)C(F)(F)F)c(C)c1C` (stereo not shown) [Compound 51]: the “Oat, Wild plant response rating” value in assay [2] (31 g ai/ha Postemergence) came to 0; in assay [2] (125 g ai/ha Postemergence), 30. Also, the figures for the “Plant response rating … Kochia” value in the assay with kochia (Bassia scoparia) (31 g ai/ha Preemergence) and in the assay on kochia (Bassia scoparia) (125 g ai/ha Preemergence) were 30 and 80, respectively.
Turning to `COC(=O)N(c1cc(N2CCC(OC3CC3)C2=O)c(C)cc1C)S(=O)(=O)C(F)(F)F` (stereo not shown) [Compound 16], in assay [1], the “Plant response rating … Blackgrass” value was determined as 0. Further, the “Oat, Wild plant response rating” value in assay [2] (31 g ai/ha Postemergence) came out at 0. For the same compound, the “Plant response rating (0 to 100 scale), Oat, Wild” value in assay [2] (125 g ai/ha Postemergence) is on record as 0. The “Plant response rating … Kochia” value in the assay with kochia (Bassia scoparia) (31 g ai/ha Preemergence) and in the assay on kochia (Bassia scoparia) (125 g ai/ha Preemergence) was 0 in each case.
Take `Cc1cc(C)c(N2CCC(OCC3CC3)C2=O)cc1NS(=O)(=O)C(F)(F)F` (stereo not shown) [Compound 22]: the “Plant response rating … Blackgrass” value in assay [1] is 90. Moreover, the “Oat, Wild plant response rating” value in assay [2] (31 g ai/ha Postemergence) stood at 20. For the same compound, the “Plant response rating (0 to 100 scale), Oat, Wild” value in assay [2] (125 g ai/ha Postemergence) was 40. For the same compound, the results for the “Plant response rating … Kochia” value in the assay on kochia (Bassia scoparia) (31 g ai/ha Preemergence) and in the assay with kochia (Bassia scoparia) (125 g ai/ha Preemergence) were 90 and 100, respectively.
With `C#CCO/N=C1\CCN(c2cc(NS(=O)(=O)C(F)(F)F)c(C)cc2C)C1=O` [Compound 13, N-[2,4-dimethyl-5-[2-oxo-3-[(2-propyn-1-yloxy)imino]-1-pyrrolidinyl]phenyl]-1,1,1-trifluoromethanesulfonamide], the “Plant response rating … Blackgrass” value in assay [1] is 90. The “Oat, Wild plant response rating” value in assay [2] (31 g ai/ha Postemergence) amounted to 90. Besides, in assay [2] (125 g ai/ha Postemergence), the “Plant response rating (0 to 100 scale), Oat, Wild” value is 90. Further, the “Plant response rating … Kochia” value with kochia (Bassia scoparia) (31 g ai/ha Preemergence) and in the assay on kochia (Bassia scoparia) (125 g ai/ha Preemergence) was 100 in each case.
For the compound `Cc1cc(C)c(N2CCC(OC3CC3)C2=O)cc1NS(=O)(=O)C(F)(F)F` (single isomer, unassigned) [Compound 30], the “Plant response rating … Blackgrass” value in assay [1] was 90. Also, the “Oat, Wild plant response rating” value in assay [2] (31 g ai/ha Postemergence) was 50. In addition, the “Plant response rating (0 to 100 scale), Oat, Wild” value in assay [2] (125 g ai/ha Postemergence) is recorded as 80. For the same compound, the “Plant response rating … Kochia” value with kochia (Bassia scoparia) (31 g ai/ha Preemergence) is 90; with kochia (Bassia scoparia) (125 g ai/ha Preemergence), 100.
Take `Cc1c(NS(=O)(=O)C(F)(F)F)cc(N2CCCC(OC3CC3)C2=O)c(C)c1F` (stereo not shown) [Compound 35]: in assay [1], the “Plant response rating … Blackgrass” value was determined as 60. For the same compound, the “Oat, Wild plant response rating” value in assay [2] (31 g ai/ha Postemergence) is reported as 40. In addition, the “Plant response rating (0 to 100 scale), Oat, Wild” value in assay [2] (125 g ai/ha Postemergence) was 70. Besides, the “Plant response rating … Kochia” value in the assay on kochia (Bassia scoparia) (31 g ai/ha Preemergence) was found to be 20; in the assay with kochia (Bassia scoparia) (125 g ai/ha Preemergence), 80.
`Cc1c(N2CCC(OC3CCC3)C2=O)cc(N(COC(=O)C(C)(C)C)S(=O)(=O)C(F)(F)F)c(C)c1F` (stereo not shown) [Compound 28]: the “Plant response rating … Blackgrass” value in assay [1] amounted to 70. Further, the “Oat, Wild plant response rating” value in assay [2] (31 g ai/ha Postemergence) was 20. In addition, in assay [2] (125 g ai/ha Postemergence), the “Plant response rating (0 to 100 scale), Oat, Wild” value is on record as 30. In addition, the “Plant response rating … Kochia” value in the assay on kochia (Bassia scoparia) (31 g ai/ha Preemergence) came out at 20; in the assay on kochia (Bassia scoparia) (125 g ai/ha Preemergence), 90.
`Cc1cc(C)c(N2CCC(O)C2=O)cc1NS(=O)(=O)C(F)(F)F` (stereo not shown) [Compound 14]: the “Plant response rating … Blackgrass” value in assay [1] was 70. In addition, in assay [2] (31 g ai/ha Postemergence), the “Oat, Wild plant response rating” value is listed as 30. Moreover, the “Plant response rating (0 to 100 scale), Oat, Wild” value in assay [2] (125 g ai/ha Postemergence) is 60. In addition, the “Plant response rating … Kochia” value in the assay with kochia (Bassia scoparia) (31 g ai/ha Preemergence) is given as 50; in the assay on kochia (Bassia scoparia) (125 g ai/ha Preemergence), 100.
For the compound `Cc1cc(C)c(N(COC(=O)C(C)(C)C)S(=O)(=O)C(F)(F)F)cc1N1CCC(OCC2CC2)C1=O` (stereo not shown) [Compound 53], the “Oat, Wild plant response rating” value in assay [2] (31 g ai/ha Postemergence) was determined as 10; in assay [2] (125 g ai/ha Postemergence), 50. Besides, the entries for the “Plant response rating … Kochia” value with kochia (Bassia scoparia) (31 g ai/ha Preemergence) and in the assay on kochia (Bassia scoparia) (125 g ai/ha Preemergence) were 0 and 50, respectively.
For the compound `Cc1cc(C)c(N2CCC(OC3COC3)C2=O)cc1NS(=O)(=O)C(F)(F)F` (stereo not shown) [Compound 34], in assay [1], the “Plant response rating … Blackgrass” value turned out to be 60. For the same compound, the “Oat, Wild plant response rating” value in assay [2] (31 g ai/ha Postemergence) is reported as 30. For the same compound, the “Plant response rating (0 to 100 scale), Oat, Wild” value in assay [2] (125 g ai/ha Postemergence) is reported as 70. In addition, the “Plant response rating … Kochia” value with kochia (Bassia scoparia) (31 g ai/ha Preemergence) came to 90; in the assay with kochia (Bassia scoparia) (125 g ai/ha Preemergence) it was 100.
As for `CC#CCOC1CCN(c2cc(NS(=O)(=O)C(F)(F)F)c(C)cc2C)C1=O` (stereo not shown) [Compound 60], the figures for the “Oat, Wild plant response rating” value in assay [2] (31 g ai/ha Postemergence) and in assay [2] (125 g ai/ha Postemergence) were 30 and 90, respectively. Further, the “Plant response rating … Kochia” value in the assay on kochia (Bassia scoparia) (31 g ai/ha Preemergence) amounted to 90; in the assay on kochia (Bassia scoparia) (125 g ai/ha Preemergence), 100.
Turning to `Cc1cc(Cl)c(N(COC(=O)C(C)(C)C)S(=O)(=O)C(F)(F)F)cc1N1CCC(OC2CC2)C1=O` (stereo not shown) [Compound 33], the “Plant response rating … Blackgrass” value in assay [1] stood at 60. Further, the “Oat, Wild plant response rating” value in assay [2] (31 g ai/ha Postemergence) is 30. Also, the “Plant response rating (0 to 100 scale), Oat, Wild” value in assay [2] (125 g ai/ha Postemergence) came to 70. For the same compound, the “Plant response rating … Kochia” value with kochia (Bassia scoparia) (31 g ai/ha Preemergence) and with kochia (Bassia scoparia) (125 g ai/ha Preemergence) was 100 in each case.
As for `CC(=O)N(c1cc(N2CCC(OC3CC3)C2=O)c(C)cc1Cl)S(=O)(=O)C(F)(F)F` (stereo not shown) [Compound 38], the “Plant response rating … Blackgrass” value in assay [1] turned out to be 70. For the same compound, the “Oat, Wild plant response rating” value in assay [2] (31 g ai/ha Postemergence) was found to be 50. Further, the “Plant response rating (0 to 100 scale), Oat, Wild” value in assay [2] (125 g ai/ha Postemergence) is given as 60. Also, the “Plant response rating … Kochia” value in the assay on kochia (Bassia scoparia) (31 g ai/ha Preemergence) and in the assay on kochia (Bassia scoparia) (125 g ai/ha Preemergence) was 100 throughout.
